We go through nine compounds from patent US5808065A, “Pyridazinone derivatives and processes for preparing the same” (Tanabe Seiyaku Co., Ltd., priority 1995, dated 1998).

The structures appear in SMILES notation.

Series [1] is described as follows: Side Effect to Circulatory System (normal awakened rats, tail-cuff method). It is filed as in vivo. The note with it: 30 mg/kg/10 ml orally, before and 2 hours after administration. As for the experimental part: One experimental group consisted of 4 rats. Each compound to be tested was suspended in purified water by using a small amount of Tween 80 (trade name, produced by Nacalai Tesque Co.), and a dose of 30 mg/kg/10 ml was administered orally to normal awakened rats. Systolic blood pressures and heart rates before administration and 2 hours after administration were examined. The systolic blood pressures and the heart rates were measured by the tail-cuff method (KN-210, trade name, produced by Natsume Seisakusho) under conditions of pretreatment at 40° C. for 15 minutes.
According to the following equations, the respective changing rates were calculated. [formula]

The nature of series [2]: Antinephritic Action (protein excretion inhibition in nephritis induced with nephrotoxic serum (NTS)). It is filed as in vivo, male WKY rats. The note with it: 30 mg/kg/10 ml orally twice a day for 8 days; urine collected for 24 hours on the seventh day; 6 rats per group. The method, then: Rabbits were immunized several times with an adjuvant and a renal glomerular basement membrane fraction obtained from WKY rats, and then whole blood was collected from the rabbits to obtain a nephrotoxic serum (NTS). This NTS was diluted by 50 times with physiological saline, and to male WKY rats of 8 weeks old, 2.5 ml of the diluted NTS per 1 kg of body weight was injected intravenously to induce nephritis. To a normal group, the same amount of physiological saline was administered intravenously. One experimental group consisted of 6 rats. Each compound to be tested was suspended in purified water by using a small amount of Tween 80 (trade name, produced by Nacalai Tesque Co.), and a dose of 30 mg/kg/10 ml was orally administered twice a day for continuous 8 days. To a normal group and a control group, the same amount of purified water was administered orally. On the seventh day, the rats were placed in a metabolic cage, and urine was collected for 24 hours. By measuring the concentrations of protein in urine by the sulfosalicylic acid method, the amounts of excreted protein (mg/day) were determined, and protein excretion-inhibiting rates were calculated by the following equation. [formula]

The subject of a further series is mice. The series can be described thus: Toxicity (death of mice observed for 3 days). Type of series: in vivo. The text has this: The desired compound (I) of the present invention has low toxicity.

Regarding `CC1CC(=O)NN=C1c1ccc(CCNC(=O)c2cccnc2)cc1` (stereo not drawn) [Known compound, 5-methyl-6-(4-[2-(pyridin-3-ylcarbonylamino)ethyl]phenyl)-4,5-dihydropyridazin-3 (2H)-one, reference compound], in series [1], the Heart rate-changing rate is recorded as 18 Δ% and the “Systolic blood pressure-changing rate” value was -7 Δ%.
For the compound `C=CS(=O)(=O)NCCCc1ccc(-c2ccc(=O)[nH]n2)cc1` [Example 52-(4), 6-[4-(3-vinylsulfonylaminopropyl)phenyl]-pyridazin-3(2H)-one], in series [2], the “Inhibition rate (protein excretion-inhibiting rate)” value (shortened to “Inhibition rate”) turned out to be 74.6%.
On to `O=C(NCCCCc1ccc(-c2ccc(=O)[nH]n2)cc1)c1cccnc1` [Example 30, 6-[4-(4-(pyridin-3-ylcarbonylamino)butyl)phenyl]pyridazin-3(2H)-one], for which, in series [1], the Heart rate-changing rate was 3 Δ% and the “Systolic blood pressure-changing rate” value was -2 Δ%. In series [2], the “Inhibition rate” value is reported as 82.5%.
On to `Nc1ncccc1C(=O)NCCCCc1ccc(-c2ccc(=O)[nH]n2)cc1` [Example 70], for which the “Inhibition rate” value in series [2] came out at 74.1%.
In the case of `Cc1ncccc1C(=O)NCCCCc1ccc(-c2ccc(=O)[nH]n2)cc1` [Example 32], in series [1], the Heart rate-changing rate is recorded as 5 Δ% and the “Systolic blood pressure-changing rate” value is given as -2 Δ%. The “Inhibition rate” value in series [2] is 64.3%.
Turning to `Nc1ncccc1C(=O)NCCCCc1ccc(-c2ccc(=O)[nH]n2)cc1` [Example 33], in series [1], the Heart rate-changing rate is 2 Δ% and the “Systolic blood pressure-changing rate” value was 1 Δ%. In addition, the “Inhibition rate” value in series [2] came out at 85.7%.
`Cl.O=C(NCCCCc1ccc(-c2ccc(=O)[nH]n2)cc1)c1cccnc1` [Example 69, 6-[4-(4-(pyridin-3-ylcarbonylamino)butyl)phenyl]pyridazin-3(2H)-one hydrochloride]: the death result is on record as “no case of death was observed” with mice (mouse, in vivo, ip, 300 mg/kg) and “no case of death was observed” in the series with mice (orally, 1,000 mg/kg, observed for 3 days). The “Inhibition rate” value in series [2] amounted to 82.2%.
For the compound `O=C(NCCCOc1ccc(-c2ccc(=O)[nH]n2)cc1)c1cccnc1` [Example 36, 6-[4-(3-(pyridin-3-ylcarbonylamino)propoxy)phenyl]pyridazin-3(2H)-one], in series [1], the Heart rate-changing rate is on record as 1 Δ% and the “Systolic blood pressure-changing rate” value was 0 Δ%. The “Inhibition rate” value in series [2] amounted to 89.0%.
As to `O=C(NCCCc1ccc(-c2ccc(=O)[nH]n2)cc1)c1cccnc1` [Example 31], in series [1], the Heart rate-changing rate is 7 Δ% and the “Systolic blood pressure-changing rate” value is on record as 0 Δ%.
